# Tests used:
# IDH1 R132H = IDH1 R132H (Homo sapiens, UniProt O75874, R132H); assay: Assay for IDH1 R132H inhibitors (NADPH/aKG, resazurin detection); assay type: biochemical; conditions: enzyme assay of Example 12; read-out: IDH1R132H IC50
# Outline: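 Compound added to substrate mix (8 uM NADPH, 2 mM aKG), then enzyme mix (0.2 μg/ml IDH1 R132H); 50 min RT in 20 mM Tris pH 7.5, 150 mM NaCl, 10 mM MgCl2, 0.03% BSA. Resazurin detection mix (30 μM) 5 min RT; resorufin fluorescence Ex544/Em590.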
# HT1080 cells = assay: Cellular assay for IDH1m inhibitors: inhibition of 2-HG production (LC-MS, 48 hours) in HT1080 cells; assay type: cell-based; conditions: Homo sapiens, HT-1080; inhibition of 2-HG production, HT1080 cells; read-out: HT1080 IC50
# Outline: (§1)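 The read-out is 2-HG in culture medium, measured by LC-MS after 48 h of compound exposure (0.2% DMSO) in cells plated overnight at 5000 per well in DMEM/10% FBS. IC50 is 50% reduction relative to DMSO wells. Luminescent viability (Cell Titer Glo) followed at 72 h.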
# U87MG cells = assay: Cellular assay for IDH1m inhibitors: inhibition of 2-HG production (LC-MS, 48 hours) in U87MG cells; assay type: cell-based; conditions: Homo sapiens, U-87 MG, inhibition of 2-HG production, U87R132H cells; read-out: U87R132H IC50
# Outline: as §1
# Sequence of IDH1 R132H (O75874 whole entry R132H): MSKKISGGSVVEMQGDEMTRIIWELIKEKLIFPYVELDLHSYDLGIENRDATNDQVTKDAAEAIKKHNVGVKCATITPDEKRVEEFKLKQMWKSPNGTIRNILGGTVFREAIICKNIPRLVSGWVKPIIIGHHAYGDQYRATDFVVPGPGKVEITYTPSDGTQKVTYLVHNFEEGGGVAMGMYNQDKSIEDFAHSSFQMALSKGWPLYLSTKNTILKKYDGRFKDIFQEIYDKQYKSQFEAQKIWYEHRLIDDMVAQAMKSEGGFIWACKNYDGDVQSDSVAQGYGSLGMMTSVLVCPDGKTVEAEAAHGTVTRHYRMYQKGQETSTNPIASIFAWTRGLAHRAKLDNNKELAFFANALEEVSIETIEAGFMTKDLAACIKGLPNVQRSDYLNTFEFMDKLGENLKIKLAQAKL
IC50 (IDH1 R132H),IC50 (HT1080 cells),IC50 (U87MG cells),SMILES
< 500 nM,< 500 nM,< 500 nM,"C=Cc1cc(Nc2c(C3CC3)nc(N3CCN(C(=O)CCO)[C@H](C(C)C)C3)c(C#N)c2C)ccn1 [Compound 799, (R)-6-cyclopropyl-2-(4-(3-hydroxypropanoyl)-3-isopropylpiperazin-1-yl)-4-methyl-5-((2-vinylpyridin-4-yl)amino)nicotinonitrile]"
< 500 nM,< 500 nM,< 500 nM,"C=Cc1cc(-c2c(C3CC3)nc(N3CCN(C(=O)CCC4CCO4)[C@H](C4CC4)C3)c(C#N)c2C)ccn1 (stereo partly drawn) [Compound 803, 2-cyclopropyl-6-((3R)-3-cyclopropyl-4-(3-(oxetan-2-yl)propanoyl)piperazin-1-yl)-4-methyl-2′-vinyl-[3,4′-bipyridine]-5-carbonitrile]"
< 500 nM,< 500 nM,< 500 nM,C=Cc1cc(-c2c(C3CC3)nc(N3CCN(C(=O)CN4CCC4=O)[C@H](C4CC4)C3)c(C#N)c2C)ccn1 [Compound 811]
< 500 nM,< 500 nM,< 500 nM,"C=Cc1cc(-c2c(C3CC3)nc(N3CCN(C(=O)C[C@H]4CCO4)[C@H](C(C)C)C3)c(C#N)c2C)cnn1 [Compound 786, 6-cyclopropyl-2-((R)-3-isopropyl-4-(2-((R)-oxetan-2-yl)acetyl)piperazin-1-yl)-4-methyl-5-(6-vinylpyridazin-4-yl)nicotinonitrile]"
< 500 nM,< 500 nM,< 500 nM,"C=Cc1cc(Nc2cc(C#N)c(N3CCN(C(=O)CCOC)[C@H](C4CC4)C3)nc2C2CC2)ccn1 [Compound 678, (R)-6-cyclopropyl-2-(3-cyclopropyl-4-(3-methoxypropanoyl)piperazin-1-yl)-5-((2-vinylpyridin-4-yl)amino)nicotinonitrile]"
< 500 nM,< 500 nM,< 500 nM,"C=Cc1cc(-c2cc(C#N)c(N3CCN(C(=O)CCOC)[C@H](C)C3)nc2C2CC2)ncn1 [Compound 597, (R)-6-cyclopropyl-2-(4-(3-methoxypropanoyl)-3-methylpiperazin-1-yl)-5-(6-vinylpyrimidin-4-yl)nicotinonitrile]"
< 500 nM,< 500 nM,< 500 nM,"C=Cc1cc(Cc2cc(C#N)c(N3CCN(C(=O)CCO)[C@H](C4CC4)C3)nc2C2CC2)ccn1 [Compound 697, (R)-6-cyclopropyl-2-(3-cyclopropyl-4-(3-hydroxypropanoyl)piperazin-1-yl)-5-((2-vinylpyridin-4-yl)methyl)nicotinonitrile]"
< 500 nM,< 500 nM,< 500 nM,"C=Cc1cc(-c2cc(C#N)c(N3CCN(C(=O)CCOC)[C@H](C4CC4)C3)nc2C2CC2)ccn1 [Compound 530, (R)-2-cyclopropyl-6-(3-cyclopropyl-4-(3-methoxypropanoyl)piperazin-1-yl)-2′-vinyl-3,4′-bipyridine-5-carbonitrile]"
< 500 nM,< 500 nM,< 500 nM,"C=Cc1cc(-c2cc(C#N)c(N3CCN(C(=O)C4CC4)[C@H](C4CC4)C3)nc2C2CC2)ccn1 [Compound 485, (R)-6-(4-(cyclopropanecarbonyl)-3-cyclopropylpiperazin-1-yl)-2-cyclopropyl-2′-vinyl-3,4′-bipyridine-5-carbonitrile]"
< 500 nM,< 500 nM,< 500 nM,C#CC(=O)N(C)c1cccc(-c2cc(C#N)c(N3CCN(C(=O)CCOC)[C@H](C)C3)nc2C2CC2)c1 [Compound 456]

# Second part, the molecule before the results:
SMILES,IC50 (IDH1 R132H),IC50 (HT1080 cells),IC50 (U87MG cells)
"COCCC(=O)N1CCN(c2nc(C3CC3)c(-c3cccc(NC(=O)C4(C#N)CC4)c3)cc2C#N)C[C@H]1C [Compound 425, (R)-1-cyano-N-(3-(5-cyano-2-cyclopropyl-6-(4-(3-methoxypropanoyl)-3-methylpiperazin-1-yl)pyridin-3-yl)phenyl)cyclopropanecarboxamide]",500 to 1000 nM,1000 to 10000 nM,1000 to 10000 nM
"C=Cc1ccc2c(-c3cc(C#N)c(N4CCN(C(=O)CCOC)[C@H](C)C4)nc3C3CC3)cccc2n1 [Compound 608, (R)-6-cyclopropyl-2-(4-(3-methoxypropanoyl)-3-methylpiperazin-1-yl)-5-(2-vinylquinolin-5-yl)nicotinonitrile]",< 500 nM,< 500 nM,< 500 nM
"COCCC(=O)N1CCN(c2nc(C3CC3)c(-c3ccnc(Cl)c3)cc2C#N)C[C@H]1C [Compound 401, (R)-2′-chloro-2-cyclopropyl-6-(4-(3-methoxypropanoyl)-3-methylpiperazin-1-yl)-3,4′-bipyridine-5-carbonitrile]",500 to 1000 nM,1000 to 10000 nM,1000 to 10000 nM
"C=Cc1cc(-c2cc(C#N)c(N3CCN(C(=O)CCO)[C@H](C4CC4)C3)nc2C2CC2)cnn1 [Compound 686, (R)-6-cyclopropyl-2-(3-cyclopropyl-4-(3-hydroxypropanoyl)piperazin-1-yl)-5-(6-vinylpyridazin-4-yl)nicotinonitrile]",< 500 nM,< 500 nM,< 500 nM
"COCCC(=O)N1CCN(c2nc(C3CC3)c(-c3ccc4ncccc4c3)cc2C#N)C[C@H]1C [Compound 353, (R)-6-cyclopropyl-2-[4-(3-methoxy-propionyl)-3-methyl-piperazin-1-yl]-5-quinolin-6-yl-nicotinonitrile]",< 500 nM,500 to 1000 nM,500 to 1000 nM
"C=Cc1ccnc(Nc2cc(C#N)c(N3CCN(C(=O)CCO)[C@H](C4CC4)C3)nc2C2CC2)c1 [Compound 756, (R)-6-cyclopropyl-2-(3-cyclopropyl-4-(3-hydroxypropanoyl)piperazin-1-yl)-5-((4-vinylpyridin-2-yl)amino)nicotinonitrile]",< 500 nM,< 500 nM,< 500 nM
"C=Cc1ccc2c(-c3cc(C#N)c(N4CCN(C(=O)C5CC5)[C@H](C5CC5)C4)nc3C3CC3)cccc2n1 [Compound 475, (R)-2-(4-(cyclopropanecarbonyl)-3-cyclopropylpiperazin-1-yl)-6-cyclopropyl-5-(2-vinylquinolin-5-yl)nicotinonitrile]",< 500 nM,500 to 1000 nM,< 500 nM
"C=Cc1cc(-c2cc(C#N)c(N3CCN(C(=O)CCO)[C@H](C4CC4)C3)nc2C2CC2)c2ccncc2n1 [Compound 688, (R)-6-cyclopropyl-2-(3-cyclopropyl-4-(3-hydroxypropanoyl)piperazin-1-yl)-5-(2-vinyl-1,7-naphthyridin-4-yl)nicotinonitrile]",< 500 nM,< 500 nM,< 500 nM
"COCCC(=O)N1CCN(c2nc(C3CC3)c(-c3ccc(F)cc3)c(C)c2C#N)C[C@H]1C1CC1 [Compound 299, (R)-6-cyclopropyl-2-(3-cyclopropyl-4-(3-methoxypropanoyl)piperazin-1-yl)-5-(4-fluorophenyl)-4-methylnicotinonitrile]",< 500 nM,500 to 1000 nM,500 to 1000 nM
"COCCC(=O)N1CCN(c2nc(C3CC3)c(Nc3ccnc(Cl)c3)cc2C#N)C[C@H]1C [Compound 643, (R)-5-((2-chloropyridin-4-yl)amino)-6-cyclopropyl-2-(4-(3-methoxypropanoyl)-3-methylpiperazin-1-yl)nicotinonitrile]",< 500 nM,< 500 nM,500 to 1000 nM
"C=Cc1cc(-c2cc(C#N)c(N3CCN(C(=O)COC)[C@H](C4CC4)C3)nc2C2CC2)c2ccncc2n1 [Compound 717, (R)-6-cyclopropyl-2-(3-cyclopropyl-4-(2-methoxyacetyl)piperazin-1-yl)-5-(2-vinyl-1,7-naphthyridin-4-yl)nicotinonitrile]",< 500 nM,< 500 nM,< 500 nM
"COCCC(=O)N1CCN(c2nc(C3CC3)c(-c3ccc(F)cc3F)c(C)c2C#N)C[C@H]1C [Compound 264, 6-cyclopropyl-5-(2,4-difluorophenyl)-2-((R)-4-(3-methoxypropanoyl)-3-methylpiperazin-1-yl)-4-methylnicotinonitrile]",500 to 1000 nM,1000 to 10000 nM,1000 to 10000 nM
"C=Cc1cc(-c2c(C3CC3)nc(N3CCN(C(=O)CCOC)[C@H](C)C3)c(C#N)c2C)ncn1 [Compound 627, (R)-6-cyclopropyl-2-(4-(3-methoxypropanoyl)-3-methylpiperazin-1-yl)-4-methyl-5-(6-vinylpyrimidin-4-yl)nicotinonitrile]",< 500 nM,< 500 nM,< 500 nM
"C=Cc1cc(Nc2c(C3CC3)nc(N3CCN(C(=O)CCO)[C@H](C4CC4)C3)c(C#N)c2C)ccn1 [Compound 742, (R)-6-cyclopropyl-2-(3-cyclopropyl-4-(3-hydroxypropanoyl)piperazin-1-yl)-4-methyl-5-(2-vinylpyridin-4-ylamino)nicotinonitrile]",< 500 nM,< 500 nM,< 500 nM
"C=Cc1cc(-c2cc(C#N)c(N3CCN(C(=O)CCO)[C@H](C4CC4)C3)nc2C2CC2)c2cc[nH]c2n1 [Compound 740, (R)-6-cyclopropyl-2-(3-cyclopropyl-4-(3-hydroxypropanoyl)piperazin-1-yl)-5-(6-vinyl-1H-pyrrolo[2,3-b]pyridin-4-yl)nicotinonitrile]",< 500 nM,< 500 nM,< 500 nM
"COCCC(=O)N1CCN(c2nc(C3CC3)c(OCc3ccc(C(=O)OC)cc3)cc2C#N)C[C@H]1C [Compound 293, (R)-methyl 4-((5-cyano-2-cyclopropyl-6-(4-(3-methoxypropanoyl)-3-methylpiperazin-1-yl)pyridin-3-yloxy)methyl)benzoate]",< 500 nM,1000 to 10000 nM,1000 to 10000 nM

# — US9856279B2 (AGIOS PHARMACEUTICALS, INC, priority 2011, dated 2018)
